Target: T1, Recombinant purified human JAK3 (Homo sapiens, UniProt P52333)
T1 construct: purchased Promega V9441
T1 sequence (P52333 1-1124): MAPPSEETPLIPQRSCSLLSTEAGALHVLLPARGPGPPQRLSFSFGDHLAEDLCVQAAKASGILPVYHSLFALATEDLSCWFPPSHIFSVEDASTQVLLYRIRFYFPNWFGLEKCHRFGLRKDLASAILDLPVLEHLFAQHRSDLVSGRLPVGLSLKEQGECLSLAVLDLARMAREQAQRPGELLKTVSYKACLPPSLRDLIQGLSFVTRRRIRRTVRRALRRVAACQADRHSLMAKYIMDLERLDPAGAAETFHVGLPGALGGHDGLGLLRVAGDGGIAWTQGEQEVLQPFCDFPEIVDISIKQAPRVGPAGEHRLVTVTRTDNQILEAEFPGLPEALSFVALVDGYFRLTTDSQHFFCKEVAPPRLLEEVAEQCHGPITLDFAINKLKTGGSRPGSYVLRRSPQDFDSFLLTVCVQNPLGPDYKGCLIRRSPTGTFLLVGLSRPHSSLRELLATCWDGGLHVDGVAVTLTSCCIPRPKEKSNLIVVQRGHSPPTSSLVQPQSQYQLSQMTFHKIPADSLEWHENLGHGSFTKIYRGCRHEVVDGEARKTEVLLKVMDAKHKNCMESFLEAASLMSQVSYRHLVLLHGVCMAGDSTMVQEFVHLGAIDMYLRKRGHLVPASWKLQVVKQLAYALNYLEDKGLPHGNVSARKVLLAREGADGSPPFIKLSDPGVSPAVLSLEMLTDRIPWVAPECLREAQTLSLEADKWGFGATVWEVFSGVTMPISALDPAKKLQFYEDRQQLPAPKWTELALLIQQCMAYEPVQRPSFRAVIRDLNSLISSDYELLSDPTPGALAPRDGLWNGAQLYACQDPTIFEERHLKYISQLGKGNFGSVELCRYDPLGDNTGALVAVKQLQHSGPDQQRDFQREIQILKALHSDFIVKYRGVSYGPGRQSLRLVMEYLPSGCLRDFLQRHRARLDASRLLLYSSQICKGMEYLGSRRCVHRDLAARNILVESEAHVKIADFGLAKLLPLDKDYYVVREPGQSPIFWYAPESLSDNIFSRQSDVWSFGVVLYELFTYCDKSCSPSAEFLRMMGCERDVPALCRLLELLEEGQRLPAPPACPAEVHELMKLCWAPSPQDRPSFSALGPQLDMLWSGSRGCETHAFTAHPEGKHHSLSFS
Assay: JAK3 inhibitory activity test (ADP-Glo kinase assay)
Type: biochemical
Conditions: ATP 5 uM, 1 hour incubation at 30° C.
Protocol: The inhibitory activities against JAK3 were measured for the compounds prepared in the above Examples through in vitro analysis on the ADP Glow (Glo) platform.
Specifically, the inhibitory activities against JAK3 were measured using a JAK3 kinase assay kit (Promega, V9441), which was purchased from Promega. Recombinant purified human JAK3 was diluted with 1× kinase reaction buffer (JAK3: 40 mM Tris-CI, pH 7.5, 20 mM MgCl2, 0.1 mg/mL BSA and 50 uM OTT and added to a 96 well plate (JAK3: final concentration of 4 ng per reaction). The compounds prepared in the previous Examples were treated so as to be finally a 1% DMSO aqueous solution, and a substrate cocktail containing ATP (JAK3: final concentration of 5 uM) and 0.2 ug/ul of Poly(Glu4, Tyri) peptide (JAK3 final concentration) in the total 25 uL reactants was added to a 96-well plate to initiate enzymatic reaction. After incubation (30° C.) for 1 hour, equivalent volume (25 uL per reaction) of ADP Glo was added and incubated (30° C.) for 40 minutes at room temperature. Then, a kinase detection reagent (50 uL per reaction) was added and incubated (30° C.) for 30 minutes at room temperature. The kinase activity was measured by chemiluminescence according to the instructions of ADP Glo kinase assay kit, and the inhibitory activity of the compounds according to the present invention was calculated. For the analysis of the results of each compound, Microsoft Excel was used, and IC50 values were calculated by SigmaPlot software.

Structure (SMILES)	IC50 [nM]
C=CC(=O)Nc1cccc(Oc2cccc3nc(Nc4cccc5ccccc45)nn23)c1 [Example 23, N-(3-(2-(naphthalen-1-ylamino)-[1,2,4]triazolo[1,5-a]pyridin-5-yloxy)phenyl)acrylamide]	> 400
C=CC(=O)Nc1cccc(Oc2cccc3nc(Nc4ccc5nc(Cl)sc5c4)nn23)c1 [Example 11, N-(3-(2-(2-chlorobenzo[d]thiazol-6-ylamino)-[1,2,4]triazolo[1,5-a]pyridin-5-yloxy)phenyl)acrylamide]	10.3
C=CC(=O)Nc1cccc(Oc2cccc3nc(Nc4ccc(Oc5ccccc5)cc4)nn23)c1 [Example 13, N-(3-(2-(4-phenoxyphenylamino)-[1,2,4]triazolo[1,5-a]pyridin-5-yloxy)phenyl)acrylamide]	9.8
C=CC(=O)Nc1cccc(Oc2cccc3nc(Nc4cnn(C(F)F)c4)nn23)c1 [Example 8, N-(3-(2-(1-(difluoromethyl)-1H-pyrazol-4-ylamino)-[1,2,4]triazolo[1,5-a]pyridin-5-yloxy)phenyl)acrylamide]	1.3
C=CC(=O)Nc1ccc(F)c(Oc2cccc3nc(Nc4ccc(N5CCN(C)CC5)cc4)nn23)c1 [Example 29, N-(4-fluoro-3-(2-(4-(4-methylpiperazin-1-yl)phenylamino)-[1,2,4]triazolo[1,5-a]pyridin-5-yloxy)phenyl)acrylamide]	0.7
C=CC(=O)Nc1cccc(Oc2cccc3nc(Nc4ccc(OCCN(CC)CC)cc4)nn23)c1 [Example 15, N-(3-(2-(4-(2-(diethylamino)ethoxy)phenylamino)-[1,2,4]triazolo[1,5-a]pyridin-5-yloxy)phenyl)acrylamide]	6.2
C=CC(=O)Nc1ccc(F)c(Oc2cccc3nc(Nc4cnn(C)c4)nn23)c1 [Example 30, N-(4-fluoro-3-(2-(1-methyl-1H-pyrazol-4-ylamino)-[1,2,4]triazolo[1,5-a]pyridin-5-yloxy)phenyl)acrylamide]	13.1
C=CC(=O)Nc1cccc(Oc2cccc3nc(Nc4cnc5ncn(C)c5c4)nn23)c1 [Example 26, N-(3-(2-(1-methyl-1H-imidazo[4,5-b]pyridin-6-ylamino)-[1,2,4]triazolo[1,5-a]pyridin-5-yloxy)phenyl)acrylamide]	> 80
C=CC(=O)Nc1cccc(Oc2cccc3nc(Nc4ccc(CN(C)C)cc4)nn23)c1 [Example 16, N-(3-(2-(4-((dimethylamino)methyl)phenylamino)-[1,2,4]triazolo[1,5-a]pyridin-5-yloxy)phenyl)acrylamide]	0.7
C=CC(=O)Nc1ccc(F)c(Oc2cccc3nc(Nc4ccc5ncsc5c4)nn23)c1 [Example 28, N-(3-(2-(benzo[d]thiazol-6-ylamino)-[1,2,4]triazolo[1,5-a]pyridin-5-yloxy)-4-fluorophenyl)acrylamide]	1.2
C=CC(=O)Nc1cccc(Oc2cccc3nc(Nc4ccc(C(=O)N5CCOCC5)cc4)nn23)c1 [Example 17, N-(3-(2-(4-(morpholine-4-carbonyl)phenylamino)-[1,2,4]triazolo[1,5-a]pyridin-5-yloxy)phenyl)acrylamide]	0.7
CC#CC(=O)Nc1cccc(Oc2cccc3nc(Nc4ccc(N5CCN(C)CC5)cc4)nn23)c1 [Example 20, N-(3-(2-(4-(4-methylpiperazin-1-yl)phenylamino)-[1,2,4]triazolo[1,5-a]pyridin-5-yloxy)phenyl)but-2-ynamide]	0.6
C=CC(=O)Nc1cccc(Oc2cccc3nc(Nc4ccc5scnc5c4)nn23)c1 [Example 12, N-(3-(2-(benzo[d]thiazol-5-ylamino)-[1,2,4]triazolo[1,5-a]pyridin-5-yloxy)phenyl)acrylamide]	2.6
C=CC(=O)Nc1cccc(Oc2cccc3nc(Nc4cnc5ccccc5c4)nn23)c1 [Example 24, N-(3-(2-(quinolin-3-ylamino)-[1,2,4]triazolo[1,5-a]pyridin-5-yloxy)phenyl)acrylamide]	15.5
C=CC(=O)Nc1cccc(Oc2cccc3nc(Nc4ccc(N5CCOCC5)cc4)nn23)c1 [Example 4, N-(3-(2-(4-morpholinophenylamino)-[1,2,4]triazolo[1,5-a]pyridin-5-yloxy)phenyl)acrylamide]	0.6
C=CC(=O)Nc1cccc(Oc2cccc3nc(Nc4cnn(Cc5cccc(OC)c5)c4)nn23)c1 [Example 14, N-(3-(2-(1-(3-methoxybenzyl)-1H-pyrazol-4-ylamino)-[1,2,4]triazolo[1,5-a]pyridin-5-yloxy)phenyl)acrylamide]	11.1
C=CC(=O)Nc1cccc(Oc2cccc3nc(Nc4ccc(N5CCN(C)CC5)cc4)nn23)c1 [Example 1, N-(3-(2-(4-(4-methylpiperazin-1-yl)phenylamino)-[1,2,4]triazolo[1,5-a]pyridin-5-yloxy)phenyl)acrylamide]	0.47
